Molecules are shown by their SMILES.

Drawing on BindingDB's records for doi:10.1021/jm058013g (Universidad San Pablo Ceu, 2005), this text covers IC50 for 20 compounds.

The target of the experiment is Cyclin-dependent kinase 1/G2/mitotic-specific cyclin-B (Marthasterias glacialis, UniProt P15206+Q9DGD3). Description: Kinase Inhibition Assay. As to conditions: 30 °C.
Cyclin-dependent kinase 1/G2/mitotic-specific cyclin-B, sequence (Q9DGD3 whole entry): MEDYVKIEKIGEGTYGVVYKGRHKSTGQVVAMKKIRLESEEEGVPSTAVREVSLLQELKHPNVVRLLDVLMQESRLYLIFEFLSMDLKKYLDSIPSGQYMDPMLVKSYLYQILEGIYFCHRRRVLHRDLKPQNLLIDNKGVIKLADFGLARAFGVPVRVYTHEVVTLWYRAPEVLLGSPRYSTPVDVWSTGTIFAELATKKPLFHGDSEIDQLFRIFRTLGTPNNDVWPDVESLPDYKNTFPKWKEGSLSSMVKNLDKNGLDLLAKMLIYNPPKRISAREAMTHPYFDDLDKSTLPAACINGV
Cyclin-dependent kinase 1/G2/mitotic-specific cyclin-B, sequence (P15206 whole entry): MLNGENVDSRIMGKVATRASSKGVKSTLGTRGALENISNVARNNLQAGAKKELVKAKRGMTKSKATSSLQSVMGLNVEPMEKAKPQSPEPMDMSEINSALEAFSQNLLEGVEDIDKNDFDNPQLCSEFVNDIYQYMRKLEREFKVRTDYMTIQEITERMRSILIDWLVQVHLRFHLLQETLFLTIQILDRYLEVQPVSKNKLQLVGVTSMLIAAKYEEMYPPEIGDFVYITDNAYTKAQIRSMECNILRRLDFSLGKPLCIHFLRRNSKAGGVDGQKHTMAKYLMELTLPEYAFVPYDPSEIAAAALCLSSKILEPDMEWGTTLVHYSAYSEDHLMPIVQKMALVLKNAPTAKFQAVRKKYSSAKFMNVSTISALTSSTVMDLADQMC

With `CC(=O)n1nc(N)c2c(-c3ccccc3)c(-c3ccccc3)nnc21` [1-{3-amino-4,5-diphenyl-1H-pyrazolo[3,4-c]pyridazin-1-yl}ethan-1-one], the IC50 is over 50 µM. Still for that read-out and setting: the same measure for `Nc1nn(CCOCCO)c2nnc(-c3ccccc3)c(-c3ccccc3)c12` [2-[2-(3-Amino-4,5-diphenyl-1H-pyrazolo[3,4-c]pyridazin-1-yl)ethoxy]ethanol]: over 50 µM. Same read-out and setting: the same measure for `Nc1nn(COCCO)c2nnc(-c3ccccc3)c(-c3ccccc3)c12` [2-[(3-Amino-4,5-diphenyl-1H-pyrazolo[3,4-c]pyridazin-1-yl)methoxy]ethanol]: over 50 µM; for `CC(=O)Nc1nn(C(C)=O)c2nnc(-c3ccccc3)c(-c3ccccc3)c12` [3-Acetamido-1-acetyl-4,5-diphenyl-1H-pyrazolo[3,4-c]-pyridazine]: over 50 µM.

In the case of `Nc1nn(Cc2ccccc2)c2nnc(-c3ccccc3)c(-c3ccccc3)c12` [3-Amino-1-benzyl-4,5-diphenyl-1H-pyrazolo[3,4-c]pyridazine], the IC50 is over 50 µM. `Nc1n[nH]c2nnc(-c3ccc(-c4ccccc4)cc3)c(-c3ccc(-c4ccccc4)cc3)c12` [3-Amino-4,5-bis(4-biphenyl)-1H-pyrazolo[3,4-c]pyridazine]: the IC50 (pH 7.2) is over 50 µM.

For the setting “pH 7.2”, `Nc1ccc(-c2nnc3[nH]nc(N)c3c2-c2ccc(N)cc2)cc1` [3-Amino-4,5-bis(p-aminophenyl)-1H-pyrazolo[3,4-c]-pyridazine] had an IC50 of over 50 µM.

In the case of `COc1ccc(-c2nnc3[nH]nc(N)c3c2-c2ccc(OC)cc2)cc1` [3-Amino-4,5-bis(p-methoxyphenyl)-1H-pyrazolo[3,4-c]-pyridazine], the IC50 (pH 7.2) was 15 µM. The compound `Nc1n[nH]c2nnc(-c3ccc(C(F)(F)F)cc3)c(-c3ccc(C(F)(F)F)cc3)c12` [3-Amino-4,5-bis(p-trifluoromethylphenyl)-1H-pyrazolo-[3,4-c]pyridazine] showed an IC50 (pH 7.2) of over 50 µM. `CC/N=C(\S)Nc1[nH]nc2nnc(-c3ccco3)cc12` [3-ethyl-1-[5-(furan-2-yl)-1H-pyrazolo[3,4-c]pyridazin-3-yl]thiourea] showed an IC50 of over 50 µM. In the case of `Nc1n[nH]c2nnc(-c3ccc([N+](=O)[O-])cc3)c(-c3ccc([N+](=O)[O-])cc3)c12` [4,5-bis(4-nitrophenyl)-1H-pyrazolo[3,4-c]pyridazin-3-amine], the IC50 (pH 7.2) was over 50 µM. Same read-out and setting: the figure for `CC(C)(C)c1ccc(-c2nnc3[nH]nc(N)c3c2-c2ccc(C(C)(C)C)cc2)cc1` [4,5-bis(4-tert-butylphenyl)-1H-pyrazolo[3,4-c]pyridazin-3-amine] is over 50 µM; for `Nc1n[nH]c2nnc(-c3ccccn3)c(-c3ccccn3)c12` [4,5-bis(pyridin-2-yl)-1H-pyrazolo[3,4-c]pyridazin-3-amine] it is over 50 µM.

Under “pH 7.2”, `Cc1n[nH]c2nnc(N)c-2c1C` [4,5-dimethyl-1H-pyrazolo[3,4-c]pyridazin-3-amine] returned an IC50 of over 50 µM. In turn, `Oc1[nH]nc2nnc(-c3ccccc3)c(-c3ccccc3)c12` [4,5-diphenyl-1H-pyrazolo[3,4-c]pyridazin-3-ol] showed an IC50 of over 50 µM. Take `Nc1n[nH]c2nncc(-c3ccccc3)c12` [4-phenyl-1H-pyrazolo[3,4-c]pyridazin-3-amine]: the IC50 (pH 7.2) was over 50 µM. Under “pH 7.2”, `Cc1n[nH]c2nnc(N)c-2c1-c1ccccc1` [5-methyl-4-phenyl-1H-pyrazolo[3,4-c]pyridazin-3-amine] returned an IC50 of over 50 µM.

As for `Nc1n[nH]c2nnc3c4ccccc4c4ccccc4c3c12` [17,18,20,21-tetraazapentacyclo[12.7.0.0^{2,7}.0^{8,13}.0^{15,19}]henicosa-1(21),2,4,6,8,10,12,14,16,19-decaen-16-amine], the IC50 (pH 7.2) was over 50 µM.

`CC(=O)Nc1n[nH]c2nnc(-c3ccccc3)c(-c3ccccc3)c12` [N-{4,5-diphenyl-1H-pyrazolo[3,4-c]pyridazin-3-yl}acetamide] registered an IC50 of over 50 µM. Take `Nc1n[nH]c2nnc(-c3ccccc3)cc12` [Pyrazolopyridazine deriv. 1n]: the IC50 (pH 7.2) amounted to 4 µM.
